Assay results from ChEMBL document CHEMBL1649129, “Treatment with the fusion inhibitor enfuvirtide influences the appearance of mutations in the human immunodeficiency virus type 1 regulatory protein rev” (2009).

Columns and labels:
Assay type in all cases: functional
[1] = test system: Human immunodeficiency virus 1; assay: Antiviral activity against HIV1 harboring E57A mutant regulatory protein rev isolated from patient with viral infection assessed as viral RNA count after 48 weeks (reference value: 4.9/ml)
[2] = test system: Human immunodeficiency virus 1; assay: Antiviral activity against HIV1 harboring wild type regulatory protein rev isolated from patient with viral infection assessed as change in viral RNA count after 48 weeks relative to control
[3] = test system: Human immunodeficiency virus 1; assay: Antiviral activity against HIV1 harboring wild type regulatory protein rev isolated from patient with viral infection assessed as viral RNA count after 48 weeks (reference value: 4.9/ml)
[4] = test system: Human immunodeficiency virus 1; assay: Antiviral activity against HIV1 harboring E57A mutant regulatory protein rev isolated from patient with viral infection assessed as change in CD4 cell count after 48 weeks relative to control
[5] = test system: Human immunodeficiency virus 1; assay: Antiviral activity against HIV1 harboring E57A mutant regulatory protein rev isolated from patient with viral infection assessed as change in viral RNA count after 48 weeks relative to control
[6] = test system: Human immunodeficiency virus 1; assay: Antiviral activity against HIV1 harboring wild type regulatory protein rev isolated from patient with viral infection assessed as change in CD4 cell count after 48 weeks relative to control
[7] = test system: Human immunodeficiency virus 1; assay: Antiviral activity against HIV1 harboring E57A mutant regulatory protein rev isolated from patient with viral infection assessed as CD4 cell count after 48 weeks (reference value: 176/ul)
[8] = test system: Human immunodeficiency virus 1; assay: Antiviral activity against HIV1 harboring wild type regulatory protein rev isolated from patient with viral infection assessed as CD4 cell count after 48 weeks (reference value: 146/ul)

Substance: enfuvirtide
- Activity [1]: 5.4 log10 copies/mL
- fold change (FC) [2]: -0.84
- Activity [3]: 4.4 log10 copies/mL
- fold change (FC) [4]: -42
- fold change (FC) [5]: 0.93
- fold change (FC) [6]: 56
- CD4 count [7]: 104 cells/µL
- CD4 count [8]: 192 cells/µL
